Experimental data reported in publication PMC5914176 (Journal of medicinal chemistry, 2018).
Values joined by “and” are separate entries in the source; they are usually repeats but may differ in a detail not shown here. Equal entries are not always repeated. Where two headings read alike, the source gives them in different places.

How the values were obtained:
[1] = in vitro; conditions: female, CD9, mouse, microsomes, three replicates
[2] = in vivo; design: species or system mice
[3] = Liver microsomal stability; conditions: for t(1/2): mouse microsomes, 0.8 μM, mean ± SD, three replicates
[4] = for adverse reactions or compound-related side effects after IV dosing: 48 h monitoring after single IV dose
[5] = test system: HCC95 cells; assay: Western blot for cellular neddylation and substrate levels; format: cell-based
[6] = test system: HCC95 cells; conditions: cited from earlier work
[7] = in vivo; conditions: mouse, iv, 1.5 mg/kg, t1/2 (IV half-life), IV 0.5, 1.0 and 1.5 mg/kg, plasma
[8] = test system: DCN1/2 over remaining human DCN isoforms; conditions: cited from earlier work
[9] = format: in vivo, mice; conditions: 14 days, 200 mg/kg oral QD or BID
[10] = test system: HCC95 cells; conditions: cited from earlier work; remark: listed apart in the source
[11] = target: T1, DCN1-UBE2M interaction (Homo sapiens, UniProt Q96GG9); conditions: previously reported potency; cited from earlier work
[12] = target: T1, DCN1-UBE2M interaction; assay: biochemical; format: binding
[13] = pH 7.4, CLint’, Table 5, mean ± SD
[14] = pH 7.4, CLint’, Table 3, mean ± SD
[15] = pH 7.4, CLint, Table 1, mean ± SD
[16] = pH 7.4, CLint’, Table 2, mean ± SD
[17] = female, CD9, mouse, microsomes, pH 7.4
[18] = IC50, rounded values in running text

T1 sequence (Q96GG9 whole entry): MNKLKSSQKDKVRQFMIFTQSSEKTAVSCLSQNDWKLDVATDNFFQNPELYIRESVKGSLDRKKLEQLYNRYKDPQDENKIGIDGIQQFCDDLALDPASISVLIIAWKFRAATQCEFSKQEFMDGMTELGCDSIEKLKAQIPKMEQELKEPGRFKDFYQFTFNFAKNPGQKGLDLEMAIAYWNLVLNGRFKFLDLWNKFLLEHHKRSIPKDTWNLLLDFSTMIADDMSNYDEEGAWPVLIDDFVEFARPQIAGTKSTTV

CCCCN1CCC(N(Cc2ccccc2)C(=O)Nc2cccc(C#N)c2)CC1 [Compound 66]
CLint scaled at 0.8 µM [1, 13]: 349 ± 22.5 mL/min/kg

CCCC(C)N1CCC(N(Cc2ccccc2)C(=O)Nc2ccc(Cl)c([N+](=O)[O-])c2)CC1 (stereo not shown) [Compound 31]
CLint scaled at 0.8 µM [1, 14]: 151 ± 10.2 mL/min/kg

CCCC(C)N1CCC(N(Cc2ccccc2)C(=O)Nc2ccc3c(c2)CCC3)CC1 (stereo not shown) [Compound 43]
CLint scaled at 0.8 μM [1, 14]: ≥ 500 mL/min/kg

CCCCN1CCC(N(Cc2ccccc2)C(=O)Nc2ccc(F)c(C(F)(F)F)c2)CC1 [Compound 70]
CLint scaled at 0.8 µM [1, 13]: 27.9 ± 2.71 mL/min/kg

CCCC(C)N1CCC(N(Cc2ccccc2)C(=O)Nc2ccc(F)c(F)c2)CC1 (stereo not shown) [Compound 32]
CLint scaled at 0.8 µM [1, 14]: 302 ± 15.2 mL/min/kg

CCCCN1CCC(N(Cc2ccccc2)C(=O)Nc2ccc(Cl)c(Cl)c2)CC1 [Compound 67, 1-benzyl-1-(1-butylpiperidin-4-yl)-3-(3,4-dichlorophenyl)urea]
adverse reaction after oral administration ([2]; 48 h monitoring, any dose tested): did not cause a significant adverse reaction at any dose tested
half-life ([2]; mouse, in vivo, po, 200 mg/kg): 3 to 5 h
t(1/2) ([3]; Table 5): 2.11 ± 0.336 h
bioavailability predicted from in vitro clearance (Fin vitro) ([3]; calculated by 1 - CL/Qh): 78%
adverse reactions or compound-related side effects after IV dosing [4]: failed to induce any measureable adverse reactions
gross substrate stabilization ([5]; HCC95): does not elicit gross substrate stabilization
steady-state levels of neddylated CUL1 and CUL3 ([5]; HCC95, 48 hours, dosing at T = 0 and T = 24 hr): inhibits steady-state levels of neddylated CUL1 and CUL3 in a dose-dependent manner
levels of CUL1/CUL3 substrates NRF2 and p27 ([5]; HCC95, 48 hours, longer exposures): dose-dependent increase
anchorage-independent growth [6]: inhibits the anchorage-independent growth of HCC95 cells
half-life [7]: 3 to 4 h
selectivity for DCN1/2 over other DCN isoforms [8]: high level of selectivity for inhibition of DCN1/2 over the highly homologous remaining human DCN isoforms
adverse reactions or compound-related side effects, repeat dosing [9]: no adverse reactions or compound-related side effects were observed
fold lower clearance in mouse microsomes than compound 7: six-fold
CLint scaled at 0.8 μM [1, 13]: 25.6 ± 4.08 mL/min/kg
steady-state levels of neddylated cullins (selectivity among cullins) ([10]; HCC95): selectively reduces steady-state levels of neddylated CUL1 and CUL3 while CUL2, CUL4A, and CUL5 are relatively unaffected

CC(C)(C)N1CCC(N(Cc2ccc3c(c2)OCO3)C(=O)Nc2cccc(C(F)(F)F)c2)CC1 [Compound 9]
CLint scaled at 0.8 µM [1, 15]: 434 ± 21.1 mL/min/kg

O=C(Nc1cccc(C(F)(F)F)c1)NC1CCN(Cc2ccccc2)CC1 [Compound 2]
CLint scaled at 0.8 µM [1, 15]: 91.4 ± 8.12 mL/min/kg

CCCC(C)N1CCC(N(Cc2ccccc2)C(=O)Nc2ccc(C(F)(F)F)cc2)CC1 (stereo not shown) [Compound 24]
CLint scaled at 0.8 µM [1, 16]: 125 ± 3.17 mL/min/kg

CCCC(C)N1CCC(N(Cc2ccccc2)C(=O)Nc2cccc(F)c2)CC1 (stereo not shown) [Compound 21]
CLint scaled at 0.8 μM [1, 16]: ≥ 500 mL/min/kg

CCCC(C)N1CCC(N(Cc2ccccc2)C(=O)Nc2ccc(F)c(C(F)(F)F)c2)CC1 (stereo not shown) [Compound 35]
CLint scaled at 0.8 µM [1, 14]: 145 ± 9.51 mL/min/kg

CCCC(C)N1CCC(N(Cc2ccccc2)C(=O)Nc2cc(Cl)ccc2F)CC1 (stereo not shown) [Compound 39]
CLint scaled at 0.8 µM [1, 14]: 230 ± 13.1 mL/min/kg

CCCC(C)N1CCC(N(Cc2ccccc2)C(=O)Nc2ccc3ncsc3c2)CC1 (stereo not shown) [Compound 42]
CLint scaled at 0.8 µM [1, 14]: 240 ± 24 mL/min/kg

CCCC(C)N1CCC(N(Cc2ccccc2)C(=O)Nc2cccc(C(F)(F)F)c2)CC1 (stereo not shown) [Compound 7, 1-benzyl-1-(1-(pentan-2-yl)piperidin-4-yl)-3-(3-(trifluoromethyl)phenyl)urea]
t(1/2) ([3]; Table 1): 0.327 ± 0.010 h
adverse reactions or compound-related side effects after IV dosing [4]: We did not observe any adverse reactions or compound-related side effects
t1/2 (IV half-life) ([4]; IV 0.5, 1.0 and 1.5 mg/kg, plasma): 8.4 to 12 min
IC50 [11]: 60 nM
CLint scaled at 0.8 μM [1, 15]: 165 ± 25.9 mL/min/kg
fold more potent than initial hit (compound 2) [12]: 100 fold
steady-state levels of cullin neddylation ([10]; HCC95 cells): suppresses steady-state levels of cullin neddylation

CCCC(C)N1CCC(N(Cc2ccccc2)C(=O)Nc2ccc(C(C)C)cc2)CC1 (stereo not shown) [Compound 29]
CLint scaled at 0.8 µM [1, 16]: 323 ± 4.46 mL/min/kg

O=C(Nc1cccc(C(F)(F)F)c1)N(Cc1ccccc1)C1CCN(CC2CC2)CC1 [Compound 5]
CLint scaled at 0.8 μM [1, 15]: > 500 mL/min/kg

CCCC(C)N1CCC(N(Cc2ccccc2)C(=O)Nc2ccc(C#N)c(C(F)(F)F)c2)CC1 (stereo not shown) [Compound 34]
CLint scaled at 0.8 µM [3, 17]: 61.3 ± 3.49 mL/min/kg
CLint scaled at 0.8 μM [3, 17]: 60 mL/min/kg

CCCCN1CCC(N(Cc2ccccc2)C(=O)Nc2ccc(F)c(Cl)c2)CC1 [Compound 72]
CLint scaled at 0.8 µM [1, 13]: 38.7 ± 1.63 mL/min/kg

CCCN1CCC(N(Cc2cc(F)cc(C(F)(F)F)c2)C(=O)Nc2cccc(C(F)(F)F)c2)CC1 [Compound 10]
CLint scaled at 0.8 µM [1, 15]: 199 ± 9.99 mL/min/kg

CCCCN1CCC(N(Cc2ccccc2)C(=O)Nc2cccc(C(F)(F)F)c2F)CC1 [Compound 69]
CLint scaled at 0.8 μM [1, 13]: ≥ 500 mL/min/kg

CCCC(C)N1CCC(N(Cc2ccccc2)C(=O)Nc2cccc(C(C)C)c2)CC1 (stereo not shown) [Compound 23]
CLint scaled at 0.8 µM [1, 16]: 256 ± 22.4 mL/min/kg

CCCN1CCC(N(Cc2ccc3c(c2)OCO3)C(=O)Nc2cccc(C(F)(F)F)c2)CC1 [Compound 1]
CLint scaled at 0.8 μM [1, 15]: > 500 mL/min/kg

CCCC(C)N1CCC(N(Cc2ccccc2)C(=O)Nc2ccc(C(F)(F)F)nc2C)CC1 (stereo not shown) [Compound 41]
CLint scaled at 0.8 μM [1, 14]: < 13.5 mL/min/kg

CCCCN1CCC(N(Cc2ccccc2)C(=O)Nc2cccc(C(F)(F)F)c2)CC1 [Compound 6]
CLint scaled at 0.8 µM [1, 15]: 361 ± 45.1 mL/min/kg

CCCC(C)N1CCC(N(Cc2ccccc2)C(=O)Nc2cc(C(F)(F)F)ccc2F)CC1 (stereo not shown) [Compound 38]
CLint scaled at 0.8 µM [1, 14]: 66.9 ± 5.15 mL/min/kg

CCCCN1CCC(N(Cc2ccccc2)C(=O)Nc2cccc(Cl)c2)CC1 [Compound 63]
CLint scaled at 0.8 μM [1, 13]: ≥ 500 mL/min/kg

CCCCN1CCC(N(Cc2ccccc2)C(=O)Nc2cccc(C)c2)CC1 [Compound 64]
CLint scaled at 0.8 µM [1, 13]: 305 ± 4.02 mL/min/kg

CCCC(C)N1CCC(N(Cc2ccccc2)C(=O)Nc2ccc(C)cc2)CC1 (stereo not shown) [Compound 28]
CLint scaled at 0.8 µM [1, 16]: 356 ± 31.9 mL/min/kg

CCCCN1CCC(N(Cc2ccc3c(c2)OCO3)C(=O)Nc2cccc(C(F)(F)F)c2)CC1 [Compound 8]
CLint scaled at 0.8 µM [1, 15]: 220 ± 12.8 mL/min/kg

CCCC(C)N1CCC(N(Cc2ccccc2)C(=O)Nc2cccc(Cl)c2)CC1 (stereo not shown) [Compound 22]
CLint scaled at 0.8 μM [1, 16]: ≥ 500 mL/min/kg

CCCC(C)N1CCC(N(Cc2ccccc2)C(=O)Nc2ccc(Br)cc2)CC1 (stereo not shown) [Compound 26]
CLint scaled at 0.8 µM [1, 16]: 148 ± 7.63 mL/min/kg
IC50 [12, 18]: ~60 nM

CCCCN1CCC(N(Cc2ccccc2)C(=O)Nc2cc(F)cc(C(F)(F)F)c2)CC1 [Compound 47]
CLint scaled at 0.8 µM [1, 13]: 22.3 ± 4.88 mL/min/kg
fold reduction in biochemical potency versus compound 7 [12]: five-fold

CCCCN1CCC(N(Cc2ccccc2)C(=O)Nc2ccc(C)c(Cl)c2)CC1 [Compound 71]
CLint scaled at 0.8 µM [1, 13]: 189 ± 14.5 mL/min/kg

CCCC(C)N1CCC(N(Cc2ccccc2)C(=O)Nc2ccc(C)c(F)c2)CC1 (stereo not shown) [Compound 33]
CLint scaled at 0.8 µM [1, 14]: 381 ± 31.9 mL/min/kg

CCCC(C)N1CCC(N(Cc2ccccc2)C(=O)Nc2ccc(I)cc2)CC1 (stereo not shown) [Compound 27]
CLint scaled at 0.8 µM [1, 16]: 115 ± 2.78 mL/min/kg
IC50 [12, 18]: ~60 nM and 50 nM

CCCC(C)N1CCC(N(Cc2ccccc2)C(=O)Nc2cc(F)cc(C(F)(F)F)c2)CC1 (stereo not shown) [Compound 36]
CLint scaled at 0.8 µM [1, 14]: 291 ± 22.4 mL/min/kg

CCCN1CCC(N(Cc2ccco2)C(=O)Nc2cccc(C(F)(F)F)c2)CC1 [Compound 3]
CLint scaled at 0.8 µM [1, 15]: 394 ± 55.2 mL/min/kg

CCCN1CCC(N(Cc2ccccc2)C(=O)Nc2cccc(C(F)(F)F)c2)CC1 [Compound 4]
CLint scaled at 0.8 µM [1, 15]: 318 ± 29.6 mL/min/kg

CCCC(C)N1CCC(N(Cc2ccccc2)C(=O)Nc2ccc(Cl)cc2)CC1 (stereo not shown) [Compound 25]
CLint scaled at 0.8 µM [1, 16]: 156 ± 10.7 mL/min/kg
IC50 ([12]; IC50): 100 nM
